# Experiments:
# Format in all cases: functional
# PC-3 = assay: Cytotoxicity against human PC3 cells assessed as growth inhibition at 10 uM after 48 hrs by coulter counter analysis; conditions: PC-3, 48 h, read-out: GI
# SNB-19 = assay: Cytotoxicity against human SNB19 cells assessed as growth inhibition at 10 uM after 48 hrs by coulter counter analysis; conditions: SNB-19, 48 h, read-out: GI
# M14 = assay: Cytotoxicity against human M14 cells assessed as growth inhibition at 10 uM after 48 hrs by coulter counter analysis; conditions: M14, 48 h, read-out: GI
# Malme-3M = assay: Cytotoxicity against human MALME-3M cells assessed as growth inhibition at 10 uM after 48 hrs by coulter counter analysis; conditions: read-out: GI
# OVCAR-4 = assay: Cytotoxicity against human OVCAR4 cells assessed as growth inhibition at 10 uM after 48 hrs by coulter counter analysis; conditions: OVCAR-4, 48 h, read-out: GI
# SW-620 = assay: Cytotoxicity against human SW620 cells assessed as growth inhibition at 10 uM after 48 hrs by coulter counter analysis; conditions: SW-620, 48 h, read-out: GI
# A498 = assay: Cytotoxicity against human A498 cells assessed as growth inhibition at 10 uM after 48 hrs by coulter counter analysis; conditions: A498, 48 h, read-out: GI
# TK-10 = assay: Cytotoxicity against human TK10 cells assessed as growth inhibition at 10 uM after 48 hrs by coulter counter analysis; conditions: TK-10, 48 h, read-out: GI
# NCI-H460 = assay: Cytotoxicity against human NCI-H460 cells assessed as growth inhibition at 10 uM after 48 hrs by coulter counter analysis; conditions: NCI-H460, 48 h, read-out: GI
# SK-MEL-5 = assay: Cytotoxicity against human SK-MEL-5 cells assessed as growth inhibition at 10 uM after 48 hrs by coulter counter analysis; conditions: SK-MEL-5, 48 h, read-out: GI
# SNB-75 = assay: Cytotoxicity against human SNB75 cells assessed as growth inhibition at 10 uM after 48 hrs by coulter counter analysis; conditions: SNB-75, 48 h, read-out: GI
# HCT-116 = assay: Cytotoxicity against human HCT116 cells assessed as growth inhibition at 10 uM after 48 hrs by coulter counter analysis; conditions: HCT-116, 48 h, read-out: GI
# UO-31 = assay: Cytotoxicity against human UO31 cells assessed as growth inhibition at 10 uM after 48 hrs by coulter counter analysis; conditions: UO-31, 48 h, read-out: GI
# A549 = assay: Cytotoxicity against human A549 cells assessed as growth inhibition at 10 uM after 48 hrs by coulter counter analysis; conditions: A549, 48 h, read-out: GI
# SF-539 = assay: Cytotoxicity against human SF539 cells assessed as growth inhibition at 10 uM after 48 hrs by coulter counter analysis; conditions: SF-539, 48 h, read-out: GI
# SF-295 = assay: Cytotoxicity against human SF295 cells assessed as growth inhibition at 10 uM after 48 hrs by coulter counter analysis; conditions: SF-295, 48 h, read-out: GI
# [1] = Cytotoxicity against human NCI-ADR-RES cells assessed as growth inhibition at 10 uM after 48 hrs by coulter counter analysis; conditions: read-out: GI
# MDA-MB-468 = assay: Cytotoxicity against human MDA-MB-468 cells assessed as growth inhibition at 10 uM after 48 hrs by coulter counter analysis; conditions: MDA-MB-468, 48 h, read-out: GI
# MCF7 = assay: Cytotoxicity against human MCF7 cells assessed as growth inhibition at 10 uM after 48 hrs by coulter counter analysis; conditions: MCF7, 48 h, read-out: GI
# U-251 = assay: Cytotoxicity against human U251 cells assessed as growth inhibition at 10 uM after 48 hrs by coulter counter analysis; conditions: U-251, 48 h, read-out: GI
# SK-OV-3 = assay: Cytotoxicity against human SKOV3 cells assessed as growth inhibition at 10 uM after 48 hrs by coulter counter analysis; conditions: SK-OV-3, 48 h, read-out: GI
# HT-29 = assay: Cytotoxicity against human HT-29 cells assessed as growth inhibition at 10 uM after 48 hrs by coulter counter analysis; conditions: HT-29, 48 h, read-out: GI
# 786-0 = assay: Cytotoxicity against human 786-0 cells assessed as growth inhibition at 10 uM after 48 hrs by coulter counter analysis; conditions: 786-0, 48 h, read-out: GI
# OVCAR-5 = assay: Cytotoxicity against human OVCAR5 cells assessed as growth inhibition at 10 uM after 48 hrs by coulter counter analysis; conditions: OVCAR-5, 48 h, read-out: GI
# RXF 393 = assay: Cytotoxicity against human RXF393 cells assessed as growth inhibition at 10 uM after 48 hrs by coulter counter analysis; conditions: RXF 393, 48 h, read-out: GI
# HOP-62 = assay: Cytotoxicity against human HOP62 cells assessed as growth inhibition at 10 uM after 48 hrs by coulter counter analysis; conditions: HOP-62, 48 h, read-out: GI
# OVCAR-8 = assay: Cytotoxicity against human OVCAR8 cells assessed as growth inhibition at 10 uM after 48 hrs by coulter counter analysis; conditions: OVCAR-8, 48 h, read-out: GI
# UACC-257 = assay: Cytotoxicity against human UACC257 cells assessed as growth inhibition at 10 uM after 48 hrs by coulter counter analysis; conditions: UACC-257, 48 h, read-out: GI
# SF-268 = assay: Cytotoxicity against human SF268 cells assessed as growth inhibition at 10 uM after 48 hrs by coulter counter analysis; conditions: SF-268, 48 h, read-out: GI
# HCC 2998 = assay: Cytotoxicity against human HCC2998 cells assessed as growth inhibition at 10 uM after 48 hrs by coulter counter analysis; conditions: HCC 2998, 48 h, read-out: GI
# [2] = Cytotoxicity against human EKVX cells assessed as growth inhibition at 10 uM after 48 hrs by coulter counter analysis; conditions: read-out: GI
# COLO 205 = assay: Cytotoxicity against human COLO205 cells assessed as growth inhibition at 10 uM after 48 hrs by coulter counter analysis; conditions: COLO 205, 48 h, read-out: GI
# LOX IMVI = assay: Cytotoxicity against human LOXIMVI cells assessed as growth inhibition at 10 uM after 48 hrs by coulter counter analysis; conditions: read-out: GI
# KM12 = assay: Cytotoxicity against human KM12 cells assessed as growth inhibition at 10 uM after 48 hrs by coulter counter analysis; conditions: KM12, 48 h, read-out: GI
# HCT-15 = assay: Cytotoxicity against human HCT15 cells assessed as growth inhibition at 10 uM after 48 hrs by coulter counter analysis; conditions: HCT-15, 48 h, read-out: GI
# T47D = assay: Cytotoxicity against human T47D cells assessed as growth inhibition at 10 uM after 48 hrs by coulter counter analysis; conditions: read-out: GI
# MDA-MB-435 = assay: Cytotoxicity against human MDA-MB-435 cells assessed as growth inhibition at 10 uM after 48 hrs by coulter counter analysis; conditions: MDA-MB-435, 48 h, read-out: GI
Structure (SMILES),inhibition of growth at 10 µM (PC-3),inhibition of growth at 10 µM (SNB-19),inhibition of growth at 10 µM (M14),inhibition of growth at 10 µM (Malme-3M),inhibition of growth at 10 µM (OVCAR-4),inhibition of growth at 10 µM (SW-620),inhibition of growth at 10 µM (A498),inhibition of growth at 10 µM (TK-10),inhibition of growth at 10 µM (NCI-H460),inhibition of growth at 10 µM (SK-MEL-5),inhibition of growth at 10 µM (SNB-75),inhibition of growth at 10 µM (HCT-116),inhibition of growth at 10 µM (UO-31),inhibition of growth at 10 µM (A549),inhibition of growth at 10 µM (SF-539),inhibition of growth at 10 µM (SF-295),inhibition of growth at 10 µM [1],inhibition of growth at 10 µM (MDA-MB-468),inhibition of growth at 10 µM (MCF7),inhibition of growth at 10 µM (SK-OV-3),further results
CCOc1ccc(NC(=O)CSc2nc3ccccc3c(=O)n2CCc2ccccc2)cc1,< 10%,< 10%,10%,37%,< 10%,< 10%,< 10%,< 10%,11%,< 10%,21%,16%,26%,13%,< 10%,< 10%,< 10%,10%,12%,< 10%,inhibition of growth at 10 µM (U-251): 27%; inhibition of growth at 10 µM (HT-29): 10%; inhibition of growth at 10 µM (786-0): < 10%; inhibition of growth at 10 µM (OVCAR-5): < 10%; inhibition of growth at 10 µM (RXF 393): 13%; inhibition of growth at 10 µM (HOP-62): 36%; inhibition of growth at 10 µM (OVCAR-8): 29%; inhibition of growth at 10 µM (UACC-257): < 10%; inhibition of growth at 10 µM (SF-268): 25%; inhibition of growth at 10 µM (HCC 2998): < 10%; inhibition of growth at 10 µM [2]: 19%; inhibition of growth at 10 µM (COLO 205): < 10%; inhibition of growth at 10 µM (LOX IMVI): 11%; inhibition of growth at 10 µM (KM12): < 10%; inhibition of growth at 10 µM (HCT-15): < 10%; inhibition of growth at 10 µM (T47D): 15%; inhibition of growth at 10 µM (MDA-MB-435): 14%
O=C(CSc1nc2ccccc2c(=O)n1CCc1ccccc1)Nc1ccc(Cl)cc1,30%,30%,< 10%,< 10%,14%,11%,< 10%,19%,32%,22%,63%,23%,28%,16%,41%,32%,21%,36%,30%,43%,inhibition of growth at 10 µM (U-251): 25%; inhibition of growth at 10 µM (HT-29): < 10%; inhibition of growth at 10 µM (786-0): 13%; inhibition of growth at 10 µM (OVCAR-5): < 10%; inhibition of growth at 10 µM (RXF 393): 22%; inhibition of growth at 10 µM (HOP-62): 40%; inhibition of growth at 10 µM (OVCAR-8): 39%; inhibition of growth at 10 µM (UACC-257): 18%; inhibition of growth at 10 µM (SF-268): 40%; inhibition of growth at 10 µM (HCC 2998): < 10%; inhibition of growth at 10 µM [2]: 29%; inhibition of growth at 10 µM (COLO 205): 15%; inhibition of growth at 10 µM (LOX IMVI): 23%; inhibition of growth at 10 µM (KM12): 14%; inhibition of growth at 10 µM (HCT-15): 16%; inhibition of growth at 10 µM (T47D): 56%; inhibition of growth at 10 µM (MDA-MB-435): 13%
O=C(CSc1nc2ccccc2c(=O)n1CCc1ccccc1)Nc1ccccc1C(=O)O,< 10%,40%,12%,18%,23%,21%,26%,19%,41%,35%,74%,45%,< 10%,46%,44%,18%,34%,14%,21%,53%,inhibition of growth at 10 µM (HT-29): 11%; inhibition of growth at 10 µM (786-0): 16%; inhibition of growth at 10 µM (OVCAR-5): < 10%; inhibition of growth at 10 µM (RXF 393): 25%; inhibition of growth at 10 µM (HOP-62): 49%; inhibition of growth at 10 µM (OVCAR-8): 61%; inhibition of growth at 10 µM (UACC-257): 35%; inhibition of growth at 10 µM (SF-268): 33%; inhibition of growth at 10 µM (HCC 2998): < 10%; inhibition of growth at 10 µM [2]: 25%; inhibition of growth at 10 µM (COLO 205): 35%; inhibition of growth at 10 µM (LOX IMVI): 38%; inhibition of growth at 10 µM (KM12): 10%; inhibition of growth at 10 µM (HCT-15): 12%; inhibition of growth at 10 µM (T47D): 27%; inhibition of growth at 10 µM (MDA-MB-435): 35%
O=C(CSc1nc2ccccc2c(=O)n1CCc1ccccc1)Oc1ccccc1,14%,< 10%,13%,16%,59%,< 10%,18%,< 10%,14%,< 10%,28%,21%,16%,12%,< 10%,20%,22%,< 10%,15%,28%,inhibition of growth at 10 µM (HT-29): < 10%; inhibition of growth at 10 µM (786-0): 13%; inhibition of growth at 10 µM (OVCAR-5): < 10%; inhibition of growth at 10 µM (RXF 393): < 10%; inhibition of growth at 10 µM (OVCAR-8): 23%; inhibition of growth at 10 µM (UACC-257): 11%; inhibition of growth at 10 µM (SF-268): 16%; inhibition of growth at 10 µM (HCC 2998): < 10%; inhibition of growth at 10 µM (COLO 205): < 10%; inhibition of growth at 10 µM (LOX IMVI): 16%; inhibition of growth at 10 µM (KM12): < 10%; inhibition of growth at 10 µM (HCT-15): < 10%; inhibition of growth at 10 µM (T47D): 14%; inhibition of growth at 10 µM (MDA-MB-435): 19%
